Our source for the MIC80 values is patent publication US20160185774A1, “Anti-Infective Compounds” (priority 2013, published 2016).

Values after ≈ are worked out from the molar mass of the structure shown.

In this assay the test system is M. tuberculosis. As to the kind of experiment: microbe, parasite or virus in culture. The conditions noted are these: Mycobacterium tuberculosis, 120 h; read-out: QUM (MIC80). Type of assay: cell-based.

For the molecule `CCc1nc2ccc(C)cn2c1C(=O)NCc1ccc(N2CCC(c3ccc(Cl)cc3)CC2)cc1` [Compound 122], the MIC80 was under 1 µM.

With `CCc1nc2ccc(OC)cn2c1C(=O)NCc1ccc(N2CCC(c3ccc(OC)cc3)CC2)cc1` [Compound 123], the MIC80 is under 1 µM.

With `CCc1nc2cc(C(F)(F)F)ccn2c1C(=O)NCc1ccc(N2CCC(c3ccc(OC)cc3)CC2)cc1` [Compound 124], the MIC80 is under 1 µM.

As for `CCc1nc2c(OC)cccn2c1C(=O)NCc1ccc(N2CCC(c3ccc(C(F)(F)F)cc3)CC2)cc1` [Compound 125], the MIC80 was in the range of 1 to 20 µM (≈ 0.537 to 10.7 µg/mL).

On to `CCc1nc2ccc(OC)cn2c1C(=O)NCc1ccc(N2CCC(c3ccc(C(F)(F)F)cc3)CC2)cc1` [Compound 126], for which the MIC80 is under 1 µM.

For the molecule `CCc1nc2ccc(OC)cn2c1C(=O)NCc1ccc(N2CCC(c3ccc(C)cc3)CC2)cc1` [Compound 127], the MIC80 is under 1 µM.

`CCc1nc2ccc(OC)cn2c1C(=O)NCc1ccc(N2CCN(c3ccc(Cl)cc3)CC2)cc1` [Compound 128]: the MIC80 was under 1 µM.

Take `CCc1nc2c(OC)cccn2c1C(=O)NCc1ccc(N2CCN(c3ccc(C(F)(F)F)cc3)CC2)cc1` [Compound 129]: the MIC80 lay within 1 to 20 µM (≈ 0.538 to 10.8 µg/mL).

As for `CCc1nc2ccc(C(F)(F)F)cn2c1C(=O)NCc1ccc(N2CCN(c3ccc(C(F)(F)F)cc3)CC2)cc1` [Compound 130], the MIC80 is under 1 µM.

For the molecule `CCc1nc2cc(Br)ccn2c1C(=O)NCc1ccc(N2CCC(c3ccc(C(F)(F)F)cc3)CC2)cc1` [Compound 132], the MIC80 is under 1 µM.

For `CCc1nc2cc(Br)ccn2c1C(=O)NCc1ccc(N2CCC(c3ccc(F)cc3)CC2)cc1` [Compound 133], the MIC80 was under 1 µM.

For the molecule `CCc1nc2cc(Br)ccn2c1C(=O)NCc1ccc(N2CCC(c3ccc(Cl)cc3)CC2)cc1` [Compound 134], the MIC80 is under 1 µM.

With `CCc1nc2cc(Br)ccn2c1C(=O)NCc1ccc(N2CCN(c3ccc(Cl)cc3)CC2)cc1` [Compound 135], the MIC80 was under 1 µM.

`CCc1nc2ccc(Br)cn2c1C(=O)NCc1ccc(N2CCC(c3ccc(C(F)(F)F)cc3)CC2)cc1` [Compound 136]: the MIC80 is under 1 µM.

Take `CCc1nc2cc(F)ccn2c1C(=O)NCc1ccc(N2CCC(c3ccc(F)cc3)CC2)cc1` [Compound 137]: the MIC80 is under 1 µM.

In the case of `CCc1nc2ccccn2c1C(=O)NCc1ccc(N2CCC(c3ccc(Cl)cc3)CC2)cc1` [Compound 139], the MIC80 was under 1 µM.

With `CCc1nc2ccc(C)cn2c1C(=O)NCc1ccc(N2CCC(c3ccc(C(F)(F)F)cc3)CC2)cc1` [Compound 140], the MIC80 is under 1 µM.

Take `CCc1nc2cc(C)ccn2c1C(=O)NCc1ccc(N2CCN(c3ccc(C)cc3)CC2)cc1` [Compound 141]: the MIC80 was under 1 µM.

Consider `CCc1nc2c(Br)cccn2c1C(=O)NCc1ccc(N2CCC(c3ccc(C(F)(F)F)cc3)CC2)cc1` [Compound 143], for which the MIC80 is 1 to 20 µM (≈ 0.585 to 11.7 µg/mL).

With `CCc1nc2c(C)cccn2c1C(=O)NCc1ccc(N2CCC(c3ccc(C)cc3)CC2)cc1` [Compound 144], the MIC80 was under 1 µM.

Take `CCc1nc2c(C)cccn2c1C(=O)NCc1ccc(N2CCC(c3ccc(C(F)(F)F)cc3)CC2)cc1` [Compound 145]: the MIC80 was under 1 µM.

In the case of `CCc1nc2ccc(C(F)(F)F)cn2c1C(=O)NCc1ccc(N2CCC(c3ccc(C(F)(F)F)cc3)CC2)cc1` [Compound 146], the MIC80 was under 1 µM.

`CCc1nc2c(Cl)cccn2c1C(=O)NCc1ccc(N2CCC(c3ccc(C)cc3)CC2)cc1` [Compound 147]: the MIC80 is under 1 µM.

With `CCc1nc2c(F)cccn2c1C(=O)NCc1ccc(N2CCC(c3ccc(F)cc3)CC2)cc1` [Compound 148], the MIC80 is under 1 µM.

For `CCc1nc2ccc(F)cn2c1C(=O)NCc1ccc(N2CCN(c3ccc(OC)cc3)CC2)cc1` [Compound 149], the MIC80 was under 1 µM.

Take `CCc1nc2ccc(F)cn2c1C(=O)NCc1ccc(N2CCC(c3ccc(OC)cc3)CC2)cc1` [Compound 150]: the MIC80 was under 1 µM.

`CCc1nc2c(OC)cccn2c1C(=O)NCc1ccc(N2CCC(c3ccc(F)cc3)CC2)cc1` [Compound 151]: the MIC80 fell in the range of 1 to 20 µM (≈ 0.487 to 9.73 µg/mL).

Regarding `CCc1nc2c(OC)cccn2c1C(=O)NCc1ccc(N2CCC(c3ccc(OC)cc3)CC2)cc1` [Compound 152], the MIC80 lay within 1 to 20 µM (≈ 0.499 to 9.97 µg/mL).

Regarding `CCc1nc2c(C(F)(F)F)cccn2c1C(=O)NCc1ccc(N2CCC(c3ccc(OC(F)(F)F)cc3)CC2)cc1` [Compound 154], the MIC80 lay within 1 to 20 µM (≈ 0.591 to 11.8 µg/mL).

As to `CCc1nc2cc(C)ccn2c1C(=O)NCc1ccc(N2CCC(c3ccc(OC)cc3)CC2)cc1` [Compound 155], the MIC80 is under 1 µM.

On to `CCc1nc2ccc(Br)cn2c1C(=O)NCc1ccc(N2CCN(c3ccc(C(F)(F)F)cc3)CC2)cc1` [Compound 156], for which the MIC80 was under 1 µM.

For the molecule `CCc1nc2ccccn2c1C(=O)NCc1ccc(N2CCC(c3ccc(C)cc3)CC2)cc1` [Compound 157], the MIC80 is under 1 µM.

With `CCc1nc2ccc(Cl)cn2c1C(=O)NCc1ccc(N2CCC(c3ccc(C(F)(F)F)cc3)CC2)cc1` [Compound 158], the MIC80 was under 1 µM.

Turning to `CCc1nc2ccc(Br)cn2c1C(=O)NCc1ccc(N2CCC(c3ccc(Cl)cc3)CC2)cc1` [Compound 159], the MIC80 was under 1 µM.

As for `CCc1nc2c(Cl)cccn2c1C(=O)NCc1ccc(N2CCN(c3ccc(C)cc3)CC2)cc1` [Compound 160], the MIC80 was under 1 µM.

Consider `CCc1nc2c(F)cccn2c1C(=O)NCc1ccc(N2CCN(c3ccc(C(F)(F)F)cc3)CC2)cc1` [Compound 161], for which the MIC80 is under 1 µM.

As to `CCc1nc2ccc(F)cn2c1C(=O)NCc1ccc(N2CCC(c3ccc(Cl)cc3)CC2)cc1` [Compound 162], the MIC80 is under 1 µM.

Turning to `CCc1nc2cc(C)ccn2c1C(=O)NCc1ccc(N2CCC(c3ccc(F)cc3)CC2)cc1` [Compound 163], the MIC80 is under 1 µM.

As to `CCc1nc2cc(F)ccn2c1C(=O)NCc1ccc(N2CCC(c3ccc(C(F)(F)F)cc3)CC2)cc1` [Compound 164], the MIC80 was under 1 µM.

`CCc1nc2ccc(F)cn2c1C(=O)NCc1ccc(N2CCC(c3ccccc3)CC2)cc1` [Compound 165]: the MIC80 is under 1 µM.

Regarding `CCc1nc2cc(F)ccn2c1C(=O)NCc1ccc(N2CCC(c3ccccc3)CC2)cc1` [Compound 166], the MIC80 was under 1 µM.

`CCc1nc2c(F)cccn2c1C(=O)NCc1ccc(N2CCC(c3ccccc3)CC2)cc1` [Compound 167]: the MIC80 was under 1 µM.

For the molecule `CCc1nc2c(Br)cccn2c1C(=O)NCc1ccc(N2CCC(c3ccccc3)CC2)cc1` [Compound 168], the MIC80 lay in the range of 1 to 20 µM (≈ 0.517 to 10.3 µg/mL).

Regarding `CCc1nc2ccc(C(F)(F)F)cn2c1C(=O)NCc1ccc(N2CCC(c3ccc(C)cc3)CC2)cc1` [Compound 169], the MIC80 is under 1 µM.

For `CCc1nc2ccccn2c1C(=O)NCc1ccc(N2CCC(c3ccccc3)CC2)cc1` [Compound 170], the MIC80 was under 1 µM.

Consider `CCc1nc2ccc(OC)cn2c1C(=O)NCc1ccc(N2CCC(c3ccc(Cl)cc3)CC2)cc1` [Compound 172], for which the MIC80 is under 1 µM.

On to `CCc1nc2c(C)cccn2c1C(=O)NCc1ccc(N2CCC(c3ccc(Cl)cc3)CC2)cc1` [Compound 173], for which the MIC80 was under 1 µM.

As for `CCc1nc2ccc(C)cn2c1C(=O)NCc1ccc(N2CCC(c3ccc(OC(F)(F)F)cc3)CC2)cc1` [Compound 174], the MIC80 was under 1 µM.

Turning to `CCc1nc2c(F)cccn2c1C(=O)NCc1ccc(N2CCC(c3ccc(Cl)cc3)CC2)cc1` [Compound 176], the MIC80 is under 1 µM.
